Assay results as given in ChEMBL document CHEMBL1212769, “Multiple-dose safety, tolerability, and pharmacokinetics of oral nemonoxacin (TG-873870) in healthy volunteers” (Antimicrob Agents Chemother, 2010).

Experiments:
[1] = AUC (0 to 24 hrs) in human at 75 mg/kg, po measured on day 1; type: ADME, organism-based; design: time < 24 hr, dose 75 mg/kg, route oral; conditions: plasma
[2] = AUC (0 to last) in human at 500 mg/kg, po measured on day 16; type: ADME, organism-based; design: time 0 - last, dose 500 mg/kg, route oral; conditions: plasma
[3] = Oral clearance in human at 75 mg/kg measured on day 1; type: ADME, organism-based; design: dose 75 mg/kg; conditions: in vivo
Homo sapiens [4] = assay: Toxicity in human assessed as occurrence of rashes at 250 […], po administered as single dose; type: organism-based; design: route oral; conditions: in vivo
[5] = Renal clearance in human at 500 […], po measured on day 16; type: ADME, organism-based, Kidney; design: route oral; conditions: in vivo, read-out: CL_renal (converted)
[6] = Renal clearance in human at 250 […], po measured on day 1; type: ADME, organism-based, Kidney; design: route oral; conditions: in vivo, read-out: CL_renal (converted)
[7] = Tmax in human at 75 […], po measured on day 10; type: ADME, organism-based; design: dose 75 mg/kg, route oral; conditions: in vivo
[8] = Cmax in human at 750 […], po measured on day 1; type: ADME, organism-based; design: dose 750 mg/kg, route oral; conditions: in vivo
[9] = AUC (0 to 24 hrs) in human at 500 mg/kg, po measured on day 16; type: ADME, organism-based; design: time < 24 hr, dose 500 mg/kg, route oral; conditions: plasma
[10] = Renal clearance in human at 1000 […], po measured on day 1; type: ADME, organism-based, Kidney; design: route oral; conditions: in vivo, read-out: CL_renal (converted)
[11] = Cmax in human at 750 […], po measured on day 10; type: ADME, organism-based; design: dose 750 mg/kg, route oral; conditions: in vivo
Homo sapiens [12] = assay: Toxicity in human assessed as occurrence of abdominal pain at 500 […], po administered as single dose; type: organism-based, Abdomen; design: route oral; conditions: in vivo
Homo sapiens [13] = assay: Toxicity in human assessed as occurrence of pollakiuria at 500 […], po administered as single dose; type: organism-based; design: route oral; conditions: in vivo
[14] = AUC (0 to 24 hrs) in human at 500 mg/kg, po measured on day 1; type: ADME, organism-based; design: time < 24 hr, dose 500 mg/kg, route oral; conditions: plasma
[15] = Oral clearance in human at 1000 […] measured on day 10; type: ADME, organism-based; design: dose 1000 mg/kg; conditions: in vivo
[16] = Oral clearance in human at 500 mg/kg measured on day 16; type: ADME, organism-based; design: dose 500 mg/kg; conditions: in vivo
[17] = Renal clearance in human at […], po measured on day 10; type: ADME, organism-based, Kidney; conditions: in vivo, read-out: CL_renal (converted)
[18] = Clearance in human assessed as compound recovered in urine at 1000 […], po measured on day 1 up to 24 hrs post dose; type: ADME, organism-based; design: dose 1000 mg/kg, route oral; conditions: read-out: amount in urine
[19] = Clearance in human assessed as compound recovered in urine at 75 mg/kg, po measured on day 1 up to 24 hrs post dose; type: ADME, organism-based; design: dose 75 mg/kg, route oral; conditions: read-out: amount in urine
[20] = Oral clearance in human at 500 mg/kg measured on day 1; type: ADME, organism-based; design: dose 500 mg/kg; conditions: in vivo
Homo sapiens [21] = assay: Toxicity in human assessed as occurrence of somnolence at 500 […], po administered as single dose; type: organism-based; design: route oral; conditions: in vivo
Homo sapiens [22] = assay: Toxicity in human assessed as occurrence of abdominal pain at 750 […], po administered as single dose; type: organism-based, Abdomen; design: route oral; conditions: in vivo
[23] = Cmax in human at 500 […], po measured on day 1; type: ADME, organism-based; design: dose 500 mg/kg, route oral; conditions: in vivo
[24] = AUC (0 to last) in human at 75 mg/kg, po measured on day 1; type: ADME, organism-based; design: time 0 - last, dose 75 mg/kg, route oral; conditions: plasma
[25] = Terminal half life in human at 500 […], po measured on day 10; type: ADME, organism-based; design: route oral; conditions: in vivo, read-out: beta t1/2 (converted)
Homo sapiens [26] = assay: Toxicity in human assessed as occurrence of pruritus at 75 […], po administered as single dose; type: organism-based; design: route oral; conditions: in vivo
[27] = Tmax in human at 1000 […], po measured on day 10; type: ADME, organism-based; design: route oral; conditions: in vivo
[28] = Cmax in human at 1000 […], po measured on day 10; type: ADME, organism-based; design: dose 1000 mg/kg, route oral; conditions: in vivo
[29] = Terminal half life in human at 250 […], po measured on day 10; type: ADME, organism-based; design: route oral; conditions: in vivo, read-out: beta t1/2 (converted)
Homo sapiens [30] = assay: Toxicity in human assessed as occurrence of dermatitis at 750 […], po administered as single dose; type: organism-based; design: route oral; conditions: in vivo
[31] = Tmax in human at 250 […], po measured on day 1; type: ADME, organism-based; design: route oral; conditions: in vivo
Homo sapiens [32] = assay: Toxicity in human assessed as occurrence of diarrhea at 250 […], po administered as single dose; type: organism-based; design: route oral; conditions: in vivo
Homo sapiens [33] = assay: Toxicity in human assessed as occurrence of rashes at 75 […], po administered as single dose; type: organism-based; design: route oral; conditions: in vivo
[34] = Tmax in human at 500 […], po measured on day 10; type: ADME, organism-based; design: dose 500 mg/kg, route oral; conditions: in vivo
[35] = Renal clearance in human at 75 […], po measured on day 10; type: ADME, organism-based, Kidney; design: route oral; conditions: in vivo, read-out: CL_renal (converted)
[36] = Cmax in human at 500 […], po measured on day 16; type: ADME, organism-based; design: dose 500 mg/kg, route oral; conditions: in vivo
[37] = Clearance in human assessed as compound recovered in urine at 750 mg/kg, po measured on day 10 up to 24 hrs post dose; type: ADME, organism-based; design: dose 750 mg/kg, route oral; conditions: read-out: amount in urine
[38] = Tmax in human at 75 […], po measured on day 1; type: ADME, organism-based; design: route oral; conditions: in vivo
Homo sapiens [39] = assay: Toxicity in human assessed as occurrence of diarrhea at 500 […], po administered as single dose; type: organism-based; design: route oral; conditions: in vivo
[40] = Clearance in human assessed as compound recovered in urine at 500 mg/kg, po measured on day 16 up to 24 hrs post dose; type: ADME, organism-based; design: dose 500 mg/kg, route oral; conditions: read-out: amount in urine
[41] = AUC (0 to last) in human at 1000 […], po measured on day 1; type: ADME, organism-based; design: time 0 - last, dose 1000 mg/kg, route oral; conditions: plasma
[42] = AUC (0 to 24 hrs) in human at 1000 […], po measured on day 10; type: ADME, organism-based; design: time < 24 hr, dose 1000 mg/kg, route oral; conditions: plasma
Homo sapiens [43] = species: Homo sapiens; assay: Plasma protein binding in human; conditions: read-out: PPB (converted)
Homo sapiens [44] = assay: Toxicity in human assessed as occurrence of dermatitis at 500 […], po administered as single dose; type: organism-based; design: route oral; conditions: in vivo
Homo sapiens [45] = assay: Toxicity in human assessed as occurrence of diarrhea at […], po administered as single dose; type: organism-based; design: route oral; dose or concentration left out as unconfirmed; conditions: in vivo
[46] = Oral clearance in human at 250 mg/kg measured on day 10; type: ADME, organism-based; design: dose 250 mg/kg; conditions: in vivo
Homo sapiens [47] = assay: Toxicity in human assessed as occurrence of somnolence at 1000 […], po administered as single dose; type: organism-based; design: route oral; conditions: in vivo
Homo sapiens [48] = assay: Toxicity in human assessed as incidence of headache at 1000 […], po administered as single dose; type: organism-based; design: route oral; conditions: in vivo
[49] = Oral clearance in human at 1000 […] measured on day 1; type: ADME, organism-based; design: dose 1000 mg/kg; conditions: in vivo
[50] = AUC (0 to last) in human at 1000 […], po measured on day 10; type: ADME, organism-based; design: time 0 - last, dose 1000 mg/kg, route oral; conditions: plasma
[51] = AUC (0 to last) in human at 750 mg/kg, po measured on day 1; type: ADME, organism-based; design: dose 750 mg/kg, route oral, time 0 - last; conditions: plasma
[52] = AUC (0 to last) in human at 75 mg/kg, po measured on day 10; type: ADME, organism-based; design: time 0 - last, dose 75 mg/kg, route oral; conditions: plasma
Homo sapiens [53] = assay: Toxicity in human assessed as occurrence of pruritus at 250 […], po administered as single dose; type: organism-based; design: route oral; conditions: in vivo
[54] = Clearance in human assessed as compound recovered in urine at 500 mg/kg, po measured on day 10 up to 24 hrs post dose; type: ADME, organism-based; design: dose 500 mg/kg, route oral; conditions: read-out: amount in urine

`COc1c(N2C[C@@H](C)C[C@H](N)C2)ccc2c(=O)c(C(=O)O)cn(C3CC3)c12` [NEMONOXACIN] gave an AUC(0-t) at 24 h [1] of 3780 ng·h/mL, an AUC(0-t) [2] of 26000 ng·h/mL and a CL/F [3] of 303 mL/min. For the same compound, the Activity (Homo sapiens [4]) was 0%, the CL renal [5] was 113 mL/min and the CL renal [6] was 115 mL/min. The Tmax [7] was 0.92 h, the Cmax [8] was 5750 ng/mL and the AUC at 24 h [9] was 22700 ng·h/mL. It also gave a CL renal [10] of 125 mL/min, a Cmax [11] of 6820 ng/mL and an Activity (Homo sapiens [12]) of 0%. For the same compound, the Activity (Homo sapiens [13]) was 0%, the AUC(0-t) at 24 h [14] was 31600 ng·h/mL and the CL/F [15] was 193 mL/min. For the same compound, the CL/F [16] was 313 mL/min, the CL renal [17] was 93.8 mL/min and the dose excreted at 24 h [18] was 47.9%. For the same compound, the dose excreted at 24 h [19] was 56.4%, the CL/F [20] was 242 mL/min and the Activity (Homo sapiens [21]) was 0%. For the same compound, the Activity (Homo sapiens [22]) was 0%, the Cmax [23] was 5120 ng/mL and the AUC(0-t) [24] was 3780 ng·h/mL. The half-life [25] was 18.6 h, the Activity (Homo sapiens [26]) was 0% and the Tmax [27] was 2.07 h. For the same compound, the Cmax [28] was 8200 ng/mL, the half-life [29] was 17.6 h and the Activity (Homo sapiens [30]) was 0%. The Tmax [31] was 1.25 h, the Activity (Homo sapiens [32]) was 0% and the Activity (Homo sapiens [33]) was 0%. The Tmax [34] was 1.31 h, the CL renal [35] was 168 mL/min and the Cmax [36] was 2750 ng/mL. It also gave a dose excreted at 24 h [37] of 41.8%, a Tmax [38] of 1.09 h and an Activity (Homo sapiens [39]) of 0%. The dose excreted at 24 h [40] was 30.5%, the AUC(0-t) [41] was 59600 ng·h/mL and the AUC at 24 h [42] was 74800 ng·h/mL. For the same compound, the fraction unbound (Homo sapiens [43]) was 0.84, the Activity (Homo sapiens [44]) was 0% and the Activity (Homo sapiens [45]) was 0%. The CL/F [46] was 223 mL/min, the Activity (Homo sapiens [47]) was 0% and the Activity (Homo sapiens [48]) was 0%. For the same compound, the CL/F [49] was 262 mL/min, the AUC(0-t) [50] was 88300 ng·h/mL and the AUC(0-t) [51] was 46000 ng·h/mL. For the same compound, the AUC(0-t) [52] was 5450 ng·h/mL, the Activity (Homo sapiens [53]) was 0% and the dose excreted at 24 h [54] was 57.8%.
